From the SangsterLogP compilation come the findings set out here.

SMILES strings stand for the structures.

The data set is described as follows: method code SF-AS, from PMID: 9631499.
The compound `Clc1ccc(C=NOCCc2nnc(-c3ccccc3)o2)cc1` returned a log partition coefficient (logP) of 3.01.

Consider `Cc1ccc(C=NOCCc2nnc(-c3cccc(C)c3)o2)cc1`, for which the logP was 3.57.

As for `Cc1ccc(-c2nnc(CCON=Cc3ccc(Cl)cc3Cl)[nH]2)cc1`, the logP was 4.1.

Turning to `Cc1ccc(-c2nnc(CCON=Cc3ccc(Cl)cc3)[nH]2)cc1`, the logP came out at 3.39.

On to `Cc1cccc(-c2nnc(CCON=Cc3ccc(Cl)cc3)[nH]2)c1`, for which the logP worked out at 3.39.

On to `Clc1ccc(C=NOCCc2nnc(-c3ccccc3)o2)c(Cl)c1`, for which the logP was determined as 3.72.

In turn, `Cc1cccc(-c2nnc(CCON=Cc3ccc(Cl)cc3Cl)[nH]2)c1` gave a logP of 4.1.

As for `Cc1ccc(-c2nnc(CCON=Cc3ccc(Cl)cc3)o2)cc1`, the log partition coefficient (logP) stood at 3.57.

Turning to `Cc1cccc(-c2nnc(CCON=Cc3ccc(Cl)cc3Cl)o2)c1`, the logP came out at 4.28.

On to `Cc1ccc(-c2nnc(CCON=Cc3ccc(Cl)cc3Cl)o2)cc1`, for which the log partition coefficient (logP) was 4.28.

`Clc1ccc(C=NOCCc2nnc(-c3ccccc3)[nH]2)cc1` came in with a logP of 2.83.

Usually logP stands for the decadic logarithm of the partition coefficient of the neutral form, usually between octanol and water. A high value points to a more lipophilic compound.
